Results: ChEMBL document CHEMBL1201862, “PubChem BioAssay data set” (2004)
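Results reflect a 48-hour exposure of cells in 96-well plates to compound at five concentrations. Abbreviation: GI50, concentration required for 50% inhibition of growth.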 The source made the active and inactive calls. Cut-off read from the data, not from the text of the source: active = GI50 up to about 1.1 µM and inactive = higher.

How the values were obtained:
Test in all cases: NCI-60 cell line screen, 48 h
A549 = system: A549
OVCAR-8 = system: OVCAR-8
SF-295 = system: SF-295
OVCAR-3 = system: OVCAR-3
SW-620 = system: SW-620
ACHN = system: ACHN
RXF 393 = system: RXF 393
MCF7 = system: MCF7
A498 = system: A498
SNB-19 = system: SNB-19
U-251 = system: U-251
CAKI-1 = system: CAKI-1
RPMI-8226 = system: RPMI-8226
SN12C = system: SN12C
HOP-62 = system: HOP-62
OVCAR-4 = system: OVCAR-4
EKVX = system: EKVX
HCC 2998 = system: HCC 2998
HOP-92 = system: HOP-92

Row | Compound | GI50 (A549) | GI50 (OVCAR-8) | GI50 (SF-295) | GI50 (OVCAR-3) | GI50 (SW-620) | GI50 (ACHN) | GI50 (RXF 393) | GI50 (MCF7) | GI50 (A498) | GI50 (SNB-19) | GI50 (U-251) | GI50 (CAKI-1) | GI50 (RPMI-8226) | GI50 (SN12C) | GI50 (HOP-62) | GI50 (OVCAR-4) | GI50 (EKVX) | GI50 (HCC 2998) | GI50 (HOP-92)
1 | CCN1CCCn2c(=O)[nH]c3cc(Br)cc1c32 | > 100 µM (inactive) | 27 µM (inactive) | 35.1 µM (inactive) | > 100 µM (inactive) | > 100 µM (inactive) | > 100 µM (inactive) | 15.2 µM (inactive) | > 100 µM (inactive) | 15.1 µM (inactive) | 89.1 µM (inactive) | 41.3 µM (inactive) | > 100 µM (inactive) | > 100 µM (inactive) | > 100 µM (inactive) | 25.5 µM (inactive) | > 100 µM (inactive) | 0.706 µM (active) | > 100 µM (inactive) | –
2 | COc1cc(/C=C2\N=C(c3ccccc3)N(c3nc4ccccc4s3)C2=O)cc(OC)c1OC | 29.6 µM (inactive) | 31 µM (inactive) | 39.5 µM (inactive) | 20 µM (inactive) | 31.3 µM (inactive) | 20.6 µM (inactive) | 18.8 µM (inactive) | 31.3 µM (inactive) | 52.7 µM (inactive) | 34.2 µM (inactive) | 26.1 µM (inactive) | 70.6 µM (inactive) | 0.352 µM (active) | 26.5 µM (inactive) | 24.4 µM (inactive) | 23.9 µM (inactive) | 21.8 µM (inactive) | 27.4 µM (inactive) | 26.2 µM (inactive)
3 | CN(C)CCNS(=O)(=O)N(C)C | > 100 µM (inactive) | > 100 µM (inactive) | > 100 µM (inactive) | > 100 µM (inactive) | > 100 µM (inactive) | > 100 µM (inactive) | > 100 µM (inactive) | > 100 µM (inactive) | > 100 µM (inactive) | > 100 µM (inactive) | > 100 µM (inactive) | > 100 µM (inactive) | > 100 µM (inactive) | > 100 µM (inactive) | > 100 µM (inactive) | > 100 µM (inactive) | > 100 µM (inactive) | – | > 100 µM (inactive)
4 | C=CCN1C(=O)/C(=C/c2ccccc2)N=C1SC1OC(COC(C)=O)C(OC(C)=O)C(OC(C)=O)C1OC(C)=O (stereo not given) | 34 µM (inactive) | 29.5 µM (inactive) | 50.1 µM (inactive) | 19.3 µM (inactive) | 28.5 µM (inactive) | 22.9 µM (inactive) | 13.1 µM (inactive) | 28.5 µM (inactive) | 38.1 µM (inactive) | 29.6 µM (inactive) | 19.2 µM (inactive) | 16.3 µM (inactive) | 24.4 µM (inactive) | 24.2 µM (inactive) | 37.8 µM (inactive) | 27.2 µM (inactive) | 15.7 µM (inactive) | 49.7 µM (inactive) | 23.7 µM (inactive)
5 | Nc1nn2c(=O)c3ccccc3nc2s1 | > 100 µM (inactive) | 30 µM (inactive) | > 100 µM (inactive) | > 100 µM (inactive) | 19.2 µM (inactive) | > 100 µM (inactive) | > 100 µM (inactive) | 50.1 µM (inactive) | > 100 µM (inactive) | > 100 µM (inactive) | > 100 µM (inactive) | > 100 µM (inactive) | 32.4 µM (inactive) | 65.6 µM (inactive) | > 100 µM (inactive) | > 100 µM (inactive) | > 100 µM (inactive) | > 100 µM (inactive) | > 100 µM (inactive)
6 | Cc1cc(C)c(S(=O)(=O)N[C@@H](/C=C(\Br)CO)C(C)C)c(C)c1 | 30.8 µM (inactive) | 33.7 µM (inactive) | 30.2 µM (inactive) | 21.2 µM (inactive) | 27 µM (inactive) | 30.4 µM (inactive) | 23.4 µM (inactive) | 19.6 µM (inactive) | 20.7 µM (inactive) | 56 µM (inactive) | 25.4 µM (inactive) | 33.2 µM (inactive) | 21.6 µM (inactive) | 16.8 µM (inactive) | 56.5 µM (inactive) | – | 35.6 µM (inactive) | 24.5 µM (inactive) | 23.1 µM (inactive)
7 | CC1(C)N=C(N)N=C(N)N1CCCCc1ccccc1 | 0.113 µM (active) | 0.251 µM (active) | 0.145 µM (active) | 0.601 µM (active) | – | 1.48 µM (inactive) | 0.422 µM (active) | 0.838 µM (active) | 2.08 µM (inactive) | 0.733 µM (active) | 0.209 µM (active) | 7.94 µM (inactive) | 2.43 µM (inactive) | 0.82 µM (active) | 1.18 µM (inactive) | 17.3 µM (inactive) | 2.21 µM (inactive) | 13.3 µM (inactive) | > 62.2 µM (inactive)
8 | CCOC(=O)c1c(NC(=O)c2cccs2)sc2c1CCC2 | > 100 µM (inactive) | > 100 µM (inactive) | > 100 µM (inactive) | > 100 µM (inactive) | – | > 100 µM (inactive) | > 100 µM (inactive) | > 100 µM (inactive) | > 100 µM (inactive) | > 100 µM (inactive) | – | > 100 µM (inactive) | > 100 µM (inactive) | > 100 µM (inactive) | > 100 µM (inactive) | – | > 100 µM (inactive) | – | –
9 | COc1ccc(OC)c(CC2CCc3nc(N)nc(N)c3C2)c1 (stereo not given) | < 0.01 µM (active) | 20.3 µM (inactive) | – | 15 µM (inactive) | 0.286 µM (active) | < 0.0284 µM (active) | < 0.01 µM (active) | 0.509 µM (active) | 23.1 µM (inactive) | 1.21 µM (inactive) | > 49.3 µM (inactive) | 27.1 µM (inactive) | 18.2 µM (inactive) | 14.5 µM (inactive) | 4.27 µM (inactive) | 28.8 µM (inactive) | 15.6 µM (inactive) | 0.69 µM (active) | 21.9 µM (inactive)
10 | CC(=O)OCC(Br)C1(C)CCC(C(C)(C)Br)O1 (stereo not given) | 63.8 µM (inactive) | – | > 100 µM (inactive) | 59.2 µM (inactive) | 55.6 µM (inactive) | 94.8 µM (inactive) | 51.1 µM (inactive) | 56.4 µM (inactive) | > 100 µM (inactive) | > 100 µM (inactive) | 73.5 µM (inactive) | > 100 µM (inactive) | > 100 µM (inactive) | 94.2 µM (inactive) | > 100 µM (inactive) | 11.2 µM (inactive) | > 100 µM (inactive) | 98.6 µM (inactive) | 20.6 µM (inactive)
11 | CC(=O)OCC12C(OC(C)=O)C[C@@H](C)C3(CC(c4ccoc4)OC3=O)C1CCC(O)C21CO1 (stereo not given in full) | > 100 µM (inactive) | > 100 µM (inactive) | > 100 µM (inactive) | > 100 µM (inactive) | – | > 100 µM (inactive) | > 100 µM (inactive) | > 100 µM (inactive) | > 100 µM (inactive) | > 100 µM (inactive) | > 100 µM (inactive) | > 100 µM (inactive) | > 100 µM (inactive) | > 100 µM (inactive) | > 100 µM (inactive) | > 100 µM (inactive) | – | > 100 µM (inactive) | > 100 µM (inactive)
12 | Cc1cc(S(=O)(=O)Nc2nc(N)n(C)n2)c(S)cc1Cl | > 10 µM (inactive) | > 10 µM (inactive) | > 10 µM (inactive) | > 10 µM (inactive) | > 10 µM (inactive) | > 10 µM (inactive) | > 10 µM (inactive) | > 10 µM (inactive) | > 10 µM (inactive) | > 10 µM (inactive) | > 10 µM (inactive) | > 10 µM (inactive) | > 10 µM (inactive) | > 10 µM (inactive) | > 10 µM (inactive) | > 10 µM (inactive) | > 10 µM (inactive) | > 10 µM (inactive) | –
13 | O=C1CC(=O)NC(NN2C(=O)CSC2c2ccc(Cl)c(Cl)c2)=N1 (stereo not given) | > 100 µM (inactive) | > 100 µM (inactive) | > 100 µM (inactive) | > 100 µM (inactive) | > 100 µM (inactive) | > 100 µM (inactive) | > 100 µM (inactive) | > 100 µM (inactive) | > 100 µM (inactive) | – | > 100 µM (inactive) | > 100 µM (inactive) | > 100 µM (inactive) | > 100 µM (inactive) | > 100 µM (inactive) | > 100 µM (inactive) | – | > 100 µM (inactive) | > 100 µM (inactive)
14 | O=C(O)CC(CC(=O)O)n1cccc1 | > 100 µM (inactive) | > 100 µM (inactive) | > 100 µM (inactive) | > 100 µM (inactive) | > 100 µM (inactive) | > 100 µM (inactive) | > 100 µM (inactive) | > 100 µM (inactive) | > 100 µM (inactive) | > 100 µM (inactive) | > 100 µM (inactive) | > 100 µM (inactive) | > 100 µM (inactive) | > 100 µM (inactive) | > 100 µM (inactive) | > 100 µM (inactive) | > 100 µM (inactive) | – | > 100 µM (inactive)
15 | COc1ccc(/C=C2/NC(=S)N=C2Cl)cc1 | 85.1 µM (inactive) | > 100 µM (inactive) | > 100 µM (inactive) | > 100 µM (inactive) | > 100 µM (inactive) | > 100 µM (inactive) | > 100 µM (inactive) | > 100 µM (inactive) | > 100 µM (inactive) | > 100 µM (inactive) | > 100 µM (inactive) | > 100 µM (inactive) | > 100 µM (inactive) | > 100 µM (inactive) | > 100 µM (inactive) | > 100 µM (inactive) | > 100 µM (inactive) | – | > 100 µM (inactive)
16 | N#CC1=C(N2CCOCC2)CCC1 | > 100 µM (inactive) | > 100 µM (inactive) | > 100 µM (inactive) | > 100 µM (inactive) | > 100 µM (inactive) | > 100 µM (inactive) | > 100 µM (inactive) | > 100 µM (inactive) | > 100 µM (inactive) | > 100 µM (inactive) | > 100 µM (inactive) | > 100 µM (inactive) | > 100 µM (inactive) | > 100 µM (inactive) | > 100 µM (inactive) | > 100 µM (inactive) | > 100 µM (inactive) | > 100 µM (inactive) | –
